Measurements: patent publication US20200282101A1, “BIODEGRADABLE TUMOR SEALANT” (MediGear International Corporation, priority 2015, published 2020)

Assays:
[1] = Stability of liquid crystal gelatinous composition in human serum; assay type: in vitro ADME
Method: Approximately 100 μL of mono-O-(5,9,13-trimethyltetradeca-4-enoyl)glycerol or approximately 100 μL each of mixed solutions of mono-O-(5,9,13-trimethyltetradeca-4-enoyl)glycerol and Lipiodol at a weight ratio of 10:1, 10:2 or 10:3 were respectively added to vials containing 2 mL of human serum (Human OTC Serum, Access Biologicals). After gently shaking each vial to cause the formation of a gelatinous composition, the vials were allowed to stand undisturbed in a water bath at 37° C. followed by observing immediately thereafter, 10 hours later and 24 hours later.
FIG. 13 depicts captured images indicating changes over time in samples consisting of approximately 100 μL of mono-O-(5,9,13-trimethyltetradeca-4-enoyl)glycerol.

[2] = Formation of gelatinous composition on mixing with physiological saline; assay type: physicochemical; settings: 50% by weight or more of physiological saline, separated saline removed
Method: An aqueous medium in the form of a 50% by weight or more of physiological saline was added to mono-O-(5,9,13-trimethyltetradeca-4-enoyl)glycerol followed by carrying out a mixing procedure and removing the separated physiological saline.
Mono-O-(5,9,13-trimethyltetradeca-4-enoyl)glycerol and a contrast agent in the form of Lipiodol were mixed at mixing ratios of 10:5, 70:30, 10:3, 80:20, 10:2, 90:10 and. 10:1. An aqueous medium in the form of 50% by weight or more of physiological saline was added to each mixture followed by carrying out a mixing procedure and removing the separated physiological saline to respectively obtain mixtures.

[3] = Viscosity measurement of the synthesized compound; assay type: physicochemical; settings: shear rate: 92 1/s
Excerpt: The results of measuring the ^1H-NMR spectrum and viscosity of the resulting compound were as shown below.
Viscosity: 0.48 Pa·s (shear rate: 92 1/s)

[4] = Liquid crystal structure analysis by small-angle X-ray scattering (SAXS); assay type: physicochemical; settings: atmospheric pressure
Method: The liquid crystal structure of the aforementioned gelatinous composition was analyzed by small-angle X-ray scattering (SAXS) using the NANO Viewer nanoscale X-ray structural evaluation system (Rigaku). As a result of measuring the aforementioned gelatinous composition packed into pinhole slits under atmospheric pressure, a graph of SAXS intensity distribution (FIG. 3(1)) and peak search results (FIG. 3(2)) were obtained.
The liquid crystal structures of the aforementioned gelatinous compositions were analyzed by small-angle X-ray scattering (SAXS) using the SmartLab high-luminance in-plane X-ray diffraction system (Rigaku). The aforementioned gelatinous composition packed into pinhole slits were measured under atmospheric pressure.
Liquid crystal structure of the aforementioned emulsion was analyzed by small-angle X-ray scattering (SAXS) using the NANO Viewer nanoscale X-ray structural evaluation system (Rigaku). As a result of introducing the emulsion into a capillary tube under atmospheric pressure and measuring with the system at reduced pressure (although the sample per se was at atmospheric pressure), a graph of SAXS intensity distribution (FIG. 5(1)) and peak search results (FIG. 5(2)) were obtained.
The aforementioned emulsion was measured by SAXS in the same manner as Example 4. […]

Change of human serum with passage of time ([1]; approx. 100 μL in 2 mL human serum, 37° C., up to 24 hours): gradually became cloudy
Change of gelatinous composition in distilled water instead of human serum ([1]; distilled water, within 24 hours): no change in the gelatinous composition
Appearance of composition after mixing with physiological saline [2]: cloudy to colorless, clear gel
Viscosity [3]: 0.48 Pa·s
Liquid crystal structure (SAXS) [4]: inverse hexagonal liquid crystal
Structure (SMILES): CC(=CCCC(=O)OCC(O)CO)CCCC(C)CCCC(C)C (stereo not drawn) [Example 1, Mono-O-(5,9,13-trimethyltetradeca-4-enoyl)glycerol]
Observation in human serum 10 hours after addition ([1]; human serum, 37° C., 10 hours): Cloudiness can be seen to have progressed
Observation in human serum 24 hours after addition ([1]; human serum, 37° C., 24 hours): Cloudiness had progressed even further, although the gelatinous composition remained
Main eluted components by TLC analysis ([1]; human serum, 37° C., 24 hours after addition): mono-O-(5,9,13-trimethyltetradeca-4-enoyl)glycerol and (5,9,13-trimethyl-4-tetradecanoic)carboxylate obtained as a result of hydrolysis
Observation in human serum immediately after addition ([1]; human serum, 37° C., immediately after addition): a gelatinous composition formed and the human serum remained clear
